The source made the active and inactive calls. No cut-off for these calls is given here.
Tests used:
BMMC [1] = experiment: Cytotoxicity against C57BL/6J mouse BMMC upto 20 uM incubated for 4 days by CCK-8 assay; assay type: toxicity, cell-based; conditions: 96 h, time 4 day
BMMC [2] = experiment: Inhibition of osteoclast differentiation in M-CSF/RANKL induced C57BL/6J mouse BMMC at 10 uM medium changed every other day and measured after 7 days by TRAP staining based assay; assay type: functional, cell-based; conditions: time 7.0 day
BMMC [3] = experiment: Inhibition of bone resorption in RANKL induced C57BL/6J mouse BMMC at 5 to 10 uM by Cytation-5 staining based assay; assay type: functional, cell-based; conditions: dose 5-10 µM
BMMC [4] = experiment: Inhibition of F-actin ring formation in RANKL induced C57BL/6J mouse BMMC at 5 to 10 uM medium changed every other day by Hoechst 33342 and TRITC-labeled phalloidin staining based assay; assay type: functional, cell-based; conditions: dose 5-10 µM

Substance	Activity (BMMC [1])	other results
Ac-APHRLLQQLVLSGNLIKEAVRRLHSR-NH2	Non-Toxic	
Ac-DAHRLLQQLVLSGNLIKEAVRRLHSR-NH2	Non-Toxic	
Ac-DPARLLQQLVLSGNLIKEAVRRLHSR-NH2	Non-Toxic	
Ac-DPHALLQQLVLSGNLIKEAVRRLHSR-NH2	Non-Toxic	
Ac-DPHRALQQLVLSGNLIKEAVRRLHSR-NH2	Non-Toxic	
Ac-DPHRLAQQLVLSANLIKEAVARLHSR-NH2	Non-Toxic	
Ac-DPHRLAQQLVLSGNLIKEAVRRLHSR-NH2	Non-Toxic	inhibition (BMMC [2]): Active
Ac-DPHRLLAQLVLSGNLIKEAVRRLHSR-NH2	Non-Toxic	
Ac-DPHRLLQALVLSGNLIKEAVRRLHSR-NH2	Non-Toxic	
Ac-DPHRLLQQAVLSGNLIKEAVRRLHSR-NH2	Non-Toxic	
Ac-DPHRLLQQLALSGNLIKEAVRRLHSR-NH2	Non-Toxic	
Ac-DPHRLLQQLVASGNLIKEAVRRLHSR-NH2	Non-Toxic	
Ac-DPHRLLQQLVLAGNLIKEAVRRLHSR-NH2	Non-Toxic	
Ac-DPHRLLQQLVLSANLIKEAVRRLHSR-NH2	Non-Toxic	inhibition (BMMC [2]): Active; inhibition (BMMC [3]): Active; inhibition (BMMC [4]): Active
Ac-DPHRLLQQLVLSGALIKEAVRRLHSR-NH2	Non-Toxic	
Ac-DPHRLLQQLVLSGNAIKEAVRRLHSR-NH2	Non-Toxic	
Ac-DPHRLLQQLVLSGNLAKEAVRRLHSR-NH2	Non-Toxic	
Ac-DPHRLLQQLVLSGNLIAEAVRRLHSR-NH2	Non-Toxic	
Ac-DPHRLLQQLVLSGNLIKAAVRRLHSR-NH2	Non-Toxic	
Ac-DPHRLLQQLVLSGNLIKEAARRLHSR-NH2	Non-Toxic	
Ac-DPHRLLQQLVLSGNLIKEAVARLHSR-NH2	Non-Toxic	inhibition (BMMC [2]): Active; inhibition (BMMC [3]): Active; inhibition (BMMC [4]): Active
Ac-DPHRLLQQLVLSGNLIKEAVRALHSR-NH2	Non-Toxic	
Ac-DPHRLLQQLVLSGNLIKEAVRRAHSR-NH2	Non-Toxic	
Ac-DPHRLLQQLVLSGNLIKEAVRRLASR-NH2	Non-Toxic	
Ac-DPHRLLQQLVLSGNLIKEAVRRLHAR-NH2	Non-Toxic	
Ac-DPHRLLQQLVLSGNLIKEAVRRLHSA-NH2	Non-Toxic	
Ac-DPHRLLQQLVLSGNLIKEAVRRLHSR-NH2	Non-Toxic	inhibition (BMMC [2]): Active

Source: ChEMBL document CHEMBL5608230, “Systematical Mutational Analysis of FRATtide against Osteoclast Differentiation by Alanine Scanning” (ACS Med Chem Lett, 2024)
